According to paper PMC11066871 (Journal of the American Chemical Society, 2024):

Experiments:
anti-pS2 antibody 2G1 [1] = experiment: Competitive ELISA with immobilized phosphopeptide 35; type: binding, rabbit; conditions: for LogIC50, best-fit value (Table S4, 2G1): log10 of competitor concentration, One site-Fit logIC50; for competition against immobilized peptide 35 for antibody binding (in words): peptide in solution, increasing concentrations
Experimental: (§1) The 100% binding value refers to binding of antibody to immobilized 35 in the absence of competitor.
(§2) A stock solution in immobilization buffer (NaH2PO4 200 mM, pH 7.4 ) was prepared for every test peptide. The […]
(§3) withdrawn and diluted step w ise with immobilization buffer from high µM range to 300 nM. Stock solution s an d sample s w ere stored at - 8 0°C.
(§4) - Thawing o f all the sampl es at room temperature for 30 min utes. The samples were quickly centrifuged and carefully mi xed before being used.
(§5) - Plating of the samples (100 µl) into a black non-binding 96-well plate that was previously conditioned overnight with wash buffer (NaH2PO4 200 mM, BS A 1% w/ v, Tween -20 0. 05%, pH 7. 4) and washed 3 times with the immobilization buffer.
(§6) - Sample s wer e transferred wit h a multi-channel pip ette to the clear Ni2+-coated 96 -well p late. Thi s plate-to-plate transfer provided full control of the timing of the Ni2+ -His6 interaction.
(§7) - Incubation for one hour at 25°C.
(§8) - Preparation of the primary antibody dilutions from the stock and then subsequent serial dilutions using […]
(§9) - Wash ing the plate 5 tim es for one minute with wa sh buffer (200 µl) .
(§10) - Plating of the primary antibody (100 µl) and incubation of the primary antibody for 1 hour at 37°C.
(§11) - Preparation of the dilution and plating (100 µl) of the secon dary antibody.
(§12) - Incubation for 30 minutes at 37°C.
(§13) - Wash ing the plate 5 times for one minute with wa sh buffer (200 µl) .
(§14) - Plating of the freshly prepared TMB-H 2O2 solution (1:1, 10 0 µl) .
(§15) - TMB solution incubation for 20 minutes at 25 °C.
(§16) - Plating of the Stop solution (2 M H2SO4, 1 00 µL).
(§17) - Incubation at 25°C for 1 minute.
(§18) - Plate reading at 450 nm, nor mal aperture, 1 second as m e asurem ent time . […]
(§19) for the primary and secondary antibodies. The average value of the optical density of the blanks was subtracted from the OD of the analyte s in the s ame plate befor e data analysi s. All the e xperi ments have be en perfor med a s biologi cal triplicate unless otherwise stated. […]
(§20) in each triplicate to provide randomization on the plate. […]
(§21) After the incubation time and the wash, the seri es of dilutions ( 300, 100, 50, 25, 1 2.5, 6.2 5, 2. 1 and 0.7 nM) of the co mpetit ors wa s plated, all […]
(§22) the samples in half the volu me (50 µL) and double the concentration. Incubation for 5 minutes at 25°C.
(§23) Plating of the primary antibody in half the volume (50 µL) and double the concentration. The final volume in each well was 100 µL, and the final concentration of the primary antibody was 1:1000. On the same plate, a highly concentrated sample of each competitor (1.2 µM) was also plated to evaluate p ossible unspecific

anti-pS2 antibody E1Z3G [2] = experiment: as above; type: binding, rabbit; conditions: for LogIC50, best-fit value (Table S4, E1Z3G): log10 of competitor concentration, One site-Fit logIC50; for competition against immobilized peptide 35 for antibody binding (in words): peptide in solution, increasing concentrations
Experimental: as §1, §2, §3, §4, §5, §6, §7, §8, §9, §10, §11, §12, §13, §14, §15, §16, §17, §18, §19, §20, §21, §22, §23

[3] = test system: anti-pS2 antibody EPR18855; experiment: as above; type: binding, rabbit; conditions: for LogIC50, best-fit value (Table S4, EPR18855): log10 of competitor concentration, One site-Fit logIC50; for competition against immobilized peptide 35 for antibody binding (in words): peptide in solution, increasing concentrations
Experimental: as §1, §2, §3, §4, §5, §6, §7, §8, §9, §10, §11, §12, §13, §14, §15, §16, §17, §18, §19, §20, §21, §22, §23

anti-pS2 antibody 2G1 [4] = experiment: Indirect ELISA, relative binding at single antibody dilution; set-up: species or system rabbit; conditions: immobilized peptide
Experimental: (§24) To allow rapid screening, the His6-tagged CTD peptides were immobilized onto Ni^2+-coated 96-well microtiter plates. The immobilized peptides were incubated with increasing concentrations of the anti-pS2 antibody E1Z3G. […] Next, positional scanning was performed with anti-pS2 antibodies EPR18855 (Abcam) and 2G1 (Thermo Fisher/Invitrogen). Here, and in subsequent experiments, we refrained from obtaining titration curves and instead determined the fold change of antibody binding relative to that of a reference binder (Figure 4B).
(§25) Figure 4 (A) Titration of the E1Z3G primary antibody to immobilized hexaheptade peptides. […] (C) Probing chelate and cluster effects upon binding of EPR18855, 2G1, and E1Z3G mAbs to hexaheptad peptides containing two or six pSer2 residues. […] 100 μL of TMB–H2O2 solution (1:1), 20 min, 25 °C, ii. 100 μL of 2 M H2SO4, 1 min, 25 °C. Washes and dilution of the antibodies were performed with NaH2PO4, 200 mM BSA (1% w/v), and 0.05% Tween-20 at pH 7.4. Assays were performed in triplicate with randomized positions of probes or antibodies.
as §2, §3, §4, §5, §6, §7, §8, §9, §10, §11, §12, §13, §14, §15, §16, §17, §18, §19, §20
(§26) - Relative affinity mea suremen ts: 3 serial dilutions o f the pri mary mAbs wer e used in the experi ment fro m […]
(§27) nM). The relati ve binding valu es wer e g enerated by dividing the OD value for each probe by the OD value of the referenc e peptide tested in the sa me plat e, with th e sa me conditions. […]

[5] = test system: anti-pS2 antibody EPR18855; experiment: as above; set-up: species or system rabbit; conditions: immobilized peptide
Experimental: as §24, §25, §2, §3, §4, §5, §6, §7, §8, §9, §10, §11, §12, §13, §14, §15, §16, §17, §18, §19, §20, §26, §27

anti-pS2 antibody E1Z3G [6] = experiment: as above; set-up: species or system rabbit; conditions: immobilized peptide
Experimental: as §24, §25, §2, §3, §4, §5, §6, §7, §8, §9, §10, §11, §12, §13, §14, §15, §16, §17, §18, §19, §20, §26, §27

Substance | competition against immobilized peptide 35 for antibody binding (in words) (anti-pS2 antibody 2G1 [1]) | competition against immobilized peptide 35 for antibody binding (in words) (anti-pS2 antibody E1Z3G [2]) | competition against immobilized peptide 35 for antibody binding (in words) [3] | binding enhancement of E1Z3G relative to 35 (anti-pS2 antibody E1Z3G [6]) | LogIC50, best-fit value (Table S4, 2G1) (anti-pS2 antibody 2G1 [1]) | LogIC50, best-fit value (Table S4, E1Z3G) (anti-pS2 antibody E1Z3G [2]) | LogIC50, best-fit value (Table S4, EPR18855) [3] | recognition by 2G1 (in words) (anti-pS2 antibody 2G1 [4]) | recognition by EPR18855 (in words) [5]
Ac- YSPTSPS YSPTSPS YSPTSPS YSPTSPS YSPTSPS YSPTSPS -NH2 [compound 3, Ac-hexaheptad CTD peptide amide phosphorylated at each Thr4] | not able to compete | not able to compete | not able to compete |  | ~ 8.143 | -5.866 | 8.303 |  | 
H6-NH-(CH2)2-PEG6-CO-YSPTSPS-YpSPTSPS-(YSPTSPS)4-YAPTSPS-(YSPTSPS)2-YpSPTSPS-(YSPTSPS)2 [compound 28, dodecaheptad CTD peptide, pSer2 in heptads 2 and 10] |  |  |  |  |  |  |  | remained at the level of the monovalent phosphopeptide | remained at the level of the monovalent phosphopeptide
H6-NH-(CH2)2-PEG6-CO-YSPTSPS-YpSPTSPS-(YSPTSPS)4-YAPTSPS-(YSPTSPS)-YpSPTSPS-(YSPTSPS)3 [compound 27, dodecaheptad CTD peptide, pSer2 in heptads 2 and 9] |  |  |  |  |  |  |  | remained at the level of the monovalent phosphopeptide | remained at the level of the monovalent phosphopeptide

More lines, main results first:

competition against immobilized peptide 35 for antibody binding (in words) (anti-pS2 antibody 2G1 [1]) | competition against immobilized peptide 35 for antibody binding (in words) (anti-pS2 antibody E1Z3G [2]) | competition against immobilized peptide 35 for antibody binding (in words) [3] | binding enhancement of E1Z3G relative to 35 (anti-pS2 antibody E1Z3G [6]) | Substance | LogIC50, best-fit value (Table S4, 2G1) (anti-pS2 antibody 2G1 [1]) | LogIC50, best-fit value (Table S4, E1Z3G) (anti-pS2 antibody E1Z3G [2]) | LogIC50, best-fit value (Table S4, EPR18855) [3] | recognition by 2G1 (in words) (anti-pS2 antibody 2G1 [4]) | recognition by EPR18855 (in words) [5]
not able to compete | not able to compete | not able to compete |  | Ac- YSPTSPS YSPTSPS YSPTSPS YSPTSPS YSPTSPS YSPTSPS -NH2 [compound 4, Ac-hexaheptad CTD peptide amide phosphorylated at each Ser5] | 7.562 | ~ -3.629 | 1.287 |  | 
 |  |  | 5 fold | HHHHHH-NH-(CH2)2-(OCH2CH2)6-CO-YpSPTSPS-YpSPTSPS-YpSPTSPS-YpSPTSPS-YpSPTSPS-YpSPTSPS-NH2 [compound 7, His6-PEG6 hexaheptad CTD peptide, hexa-pSer2] |  |  |  | did not enhance binding | did not enhance binding
